Patent US20240016882A1, “AUTOPHAGY-INHIBITING PEPTIDE AND ORGANIC ACID SALT THEREOF ADDRESSING ISSUES OF VASCULAR PERMEABILITY” (BIOTEMPT B.V., priority 2020, published 2024)
Like-named read-outs stand apart in the source and are kept apart here. Ends that are not written are not given here. Peptide text beside a SMILES is read from it.

Key:
[1] = Dose-escalating phase I studies: pharmacokinetics, safety and tolerability of AQGV; format: in vivo, humans (healthy subjects)
Protocol: Three double-blind, randomized, placebo-controlled, dose-escalating phase I studies in healthy subjects were conducted to evaluate safety, tolerability and pharmacokinetics of AQGV (SEQ ID NO: 5). In the first single dose study, 32 subjects were assigned to four single dosage groups (1, 3, 10 or 30 mg/kg). In the second multiple dosage study, 24 subjects were assigned to three dosing groups (10, 20 or 30 mg/kg) and received study medication thrice a day for three days. In the third continuous dosing study, 24 subjects were assigned to three dosing groups (15, 30 or 90 mg/kg/hour) to receive study medication by 2-hour continuous iv infusion. Pharmacokinetics (PK), safety and tolerability assessments were performed up to 14-days.

[2] = Previous first in human study of AQGV; format: in vivo; conditions: up to i.v. doses of 30 mg/kg three times a day (90 mg/kg daily) for three days
p38 MAPK = test: Phosphorylation status after fMLP challenge of hPBMCs: p38 MAPK; format: cell-based, human; conditions: 1 μM fMLP
Protocol: (§1) Human-derived peripheral blood monocytes as a prototype cell-system for FPR-expression were isolated from healthy volunteers (hPBMCs) according to routine procedures^1 at University Medical Centre Groningen, The Netherlands. Subsequently PMBC were incubated with the Biotempt-supplied peptide AQGV (SEQ ID NO: 5) (which was freshly prepared as a 20 […] stock solution in bidistilled water) or treated with the vehicle for 10 min. Then hPMBCs were challenged with 1 μM fMLP for various time periods (see results FIGS. 4a, b, 4c and 4d). Each stimulus 0, 30, 60, 300 and 600 seconds at two concentrations AQGV (SEQ ID NO: 5), 20 ng/ml and 50 ng/ml and in six-fold. Following stimulation with fMLP for the indicated time periods, the phosphorylation status of p38MAPK, JNK, PKB, P42/p44MAPK/ERK1,2 and STAT3 was analysed 3. STAT3 was undetectable, JNK and P42/p44MAPK/ERK1,2.

PKB (also known as AKT) = test: Phosphorylation status after fMLP challenge of hPBMCs: PKB (AKT); format: cell-based, human; conditions: 1 μM fMLP
Protocol: as §1

JNK = test: Phosphorylation status after fMLP challenge of hPBMCs: JNK; format: cell-based, human; conditions: hPBMC, 1 μM fMLP, 0-600 seconds
Protocol: as §1

P42/p44MAPK/ERK1,2 = test: Phosphorylation status after fMLP challenge of hPBMCs: P42/p44MAPK/ERK1,2; format: cell-based, human; conditions: hPBMC, 1 μM fMLP, 0-600 seconds
Protocol: as §1

mTOR kinases = mTOR kinases (Homo sapiens, UniProt P42345); conditions: cited from earlier work
autophagy = conditions: cited from earlier work
human cells = conditions: AJ Meijer et al Amino Acids 2015; cited from earlier work
[3] = Solubility / aggregation points of AQGV salts in 0.9% NaCl
From the text: (§2) At first attempts were made to mix a solution of the free base and an acid in order to achieve a concentrated DMSO solution of the salt and subsequently dilute this in water in order to determine solubility. […] It was decided to determine the solubility of the salts required by dilution of known amount of salts (not soluble) till a clear solution is obtained.

[4] = cited from earlier work
[5] = From the text: as §2
[6] = design: species or system male CD-1 mice; conditions: mouse, in vivo
Protocol: The present study, which was conducted by TNO Biosciences, Utrechtseweg, Netherlands, was designed to provide data on the distribution and metabolism of [14C]-AQGV (“AQGV” disclosed as SEQ ID NO: 5) (Ala-Gln-[1-^14C]Gly-Val (“AQGV” disclosed as SEQ ID NO: 5)) in male CD-1 mice following a single intravenous dose of 50 mg/kg. To this end, mice were sacrificed at […], and 6 and 24 hours after administration of radiolabeled AQGV (SEQ ID NO: 5), counts in various tissues were determined, and the radioactivity present in the urine and plasma were analyzed by HPLC.

With `CC(C)[C@H](NC(=O)CNC(=O)[C@H](CCC(N)=O)NC(=O)[C@H](C)N)C(=O)O` [AQGV] (H-AQGV-OH) the clearance ([1]; human, in vivo, iv, range over phase I studies, read-out: clearance rate) was 433 to 1020 mL/min/kg, the half-life ([1]; human, in vivo, iv, range over phase I studies, read-out: estimated half life time) was 2 to 22 min and the Vd ([1]; human, in vivo, iv, range over phase I studies, read-out: volume of distribution) was 4 to 33 L/kg. For the same compound, the “more than proportional increases in exposure to the highest dosages” value ([1]; i.v., range over phase I studies) was 126-137%, the tolerability ([1]; i.v., single, multiple and continuous dosing up to 90 mg/kg/hour) was “well tolerated” and the serious adverse events ([1]; phase I studies) was “no serious adverse events”. The “subjects reporting AEs with a possible relationship to study drug” value ([1]; subjects receiving AQGV) was 3 subjects, the tolerability [2] was “well tolerated” and the “effect on p38 MAPK kinase activated changes” value (p38 MAPK; hPBMC) was “reduces p38 MAPK kinase activated changes”. The “time after FPR-stimulation at which effects on p38 MAPK are detected” value (p38 MAPK; hPBMC, 20 and 50 ng/ml AQGV) was 30 s, the “duration of effects on p38 signalling” value (p38 MAPK; hPBMC, 600 seconds tested) was 600 s and the “effect on PI3K/AKT/mTOR activated induced changes” value (PKB (also known as AKT); hPBMC) was “reduces PI3K/AKT/mTOR activated induced changes”. The “duration of effects on PKB-mediated signalling” value (PKB (also known as AKT); hPBMC, 600 seconds tested) was 600 s, the “time after FPR-stimulation at which effects on PKB(AKT) follow” value (PKB (also known as AKT); hPBMC, bi-phasic pattern) was 300 s and the “effect on JNK phosphorylation status” value (JNK) was “not affected throughout”. For the same compound, the “effect on P42/p44MAPK/ERK1,2 phosphorylation status” value (P42/p44MAPK/ERK1,2) was “not affected throughout”.
For `N=C(N)NCCC[C@H](N)C(=O)O` [L-Arginine], the “Literature based activity mTOR kinases” value (mTOR kinases) is given as “activate” and the “Literature based activity autophagy” value (autophagy) is given as “DOWN”.
In the case of `CSCC[C@H](N)C(=O)O` [L-Methionine], the “Literature based activity mTOR kinases” value (mTOR kinases) is given as “partial”.
In the case of `C[C@H](N)C(=O)O` [L-Alanine], the “Literature based activity autophagy” value (autophagy) is listed as “DOWN” and the “autophagic effects on human cells” value (human cells) is listed as “most prominent autophagic effects”.
In the case of `CC(C)[C@H](NC(=O)CNC(=O)[C@H](CCC(N)=O)NC(=O)[C@H](C)N)C(=O)O` [AQGV-citrate] (H-AQGV-OH), the “solubility compared to AQGV-Ac” value ([3]; 0.9% NaCl) is reported as “Higher solubility”, the “appearance / behaviour of the concentrated solution” value (from here on “appearance / behaviour”) ([3]; 0.9% NaCl, listed as Citric acid) is reported as “does not crystallize or aggregate but tend to form a highly viscous solution” and the “appearance / behaviour” value ([3]; 0.9% NaCl, listed as citric acid) is reported as “remains clear but got very thick/viscous”. For the same compound, the total amount dissolved ([3]; in 0.5 mL 0.9% NaCl) was 2.75 mmol.
For `N[C@@H](Cc1c[nH]cn1)C(=O)O` [L-Histidine], the “Literature based activity mTOR kinases” value (mTOR kinases) is given as “down”.
For `C[C@@H](O)[C@H](N)C(=O)O` [L-Threonine], the “Literature based activity mTOR kinases” value (mTOR kinases) is listed as “down”.
With `CSCC[C@H](NC=O)C(=O)N[C@@H](CC(C)C)C(=O)N[C@@H](Cc1ccccc1)C(=O)O` [fMLP, N-formyl-methionyl-leucyl-phenylalanine, reference compound] the “changes in phosphorylation status of p38 MAPK caused by FPR-activation” value (p38 MAPK; p<0.05 from 60 to 600 sec) was “rapidly induced and significant” and the “changes in phosphorylation status of PKB caused by FPR-activation” value (PKB (also known as AKT); p<0.05 at 600 sec) was “rapidly induced and significant”.
In the case of VRLIVAVRIWRR-NH2 [IDR-1018], the aggregation ([4]; prepared in sodium acetate) is listed as “did not induce any appreciable aggregation”, the aggregation ([4]; solutions containing large polyatomic anions: phosphate, benzoate, nitrate, citrate) is listed as “suffer strongly from aggregation” and the aggregation ([4]; solutions containing sulfate, bicarbonate, chloride, iodide anions) is listed as “comparatively small amount of aggregation”. The “ion concentration at which aggregation was observed” value ([4]; sulfate, bicarbonate, chloride, iodide anions) was “above 200 mM”.
For `Nc1ncnc2c1ncn2[C@@H]1O[C@H](CO)[C@@H](O)[C@H]1O` [adenosine], the “appearance / behaviour” value ([3]; 0.9% NaCl) was “no clear solution could be obtained” and the “solubility in DMSO” value [5] was “did not dissolve in DMSO at all”.
For `NC(=O)CC[C@H](N)C(=O)O` [L-Glutamine], the “Literature based activity mTOR kinases” value (mTOR kinases) is given as “activate”, the “Literature based activity autophagy” value (autophagy) is given as “DOWN” and the “autophagic effects on human cells” value (human cells) is given as “most prominent autophagic effects”.
With `Nc1ncnc2c1ncn2[C@@H]1O[C@H](COP(=O)(O)O)[C@@H](O)[C@H]1O` [adenosine-monophosphate] the “appearance / behaviour” value ([3]; 0.9% NaCl) was “no clear solution could be obtained”.
With Ala-Gln-[1-^14C]Gly-Val [[14C]-AQGV] the “administered radioactivity exhaled as volatiles” value [6] was “About 50%” and the “time to full hydrolysis of the peptide after administration” value [6] was 15 min.
In the case of `CC[C@H](C)[C@H](N)C(=O)O` [L-Isoleucine], the “Literature based activity mTOR kinases” value (mTOR kinases) is given as “activate” and the “Literature based activity autophagy” value (autophagy) is given as “DOWN”.
In the case of `O=C(O)[C@@H]1CCCN1` [L-Proline], the “Literature based activity mTOR kinases” value (mTOR kinases) is given as “activate” and the “autophagic effects on human cells” value (human cells) is given as “most prominent autophagic effects”.
In the case of `NCC(=O)O` [L-Glycine], the “Literature based activity autophagy” value (autophagy) is given as “DOWN”.
For `NCCCC[C@H](N)C(=O)O` [L-Lysine], the “Literature based activity mTOR kinases” value (mTOR kinases) is listed as “down”.
In the case of `CC(C)[C@H](N)C(=O)O` [L-Valine], the “Literature based activity mTOR kinases” value (mTOR kinases) is given as “activate”.
In the case of `CC(C)C[C@H](N)C(=O)O` [L-Leucine], the “Literature based activity mTOR kinases” value (mTOR kinases) is listed as “activate”, the “Literature based activity autophagy” value (autophagy) is listed as “DOWN” and the “autophagic effects on human cells” value (human cells) is listed as “most prominent autophagic effects”.
